Assays:
Settings in all cases: 48 h
NOMO1 [1] = assay: cell viability relative to DMSO control; higher = less cytotoxic
Procedure, shortened: (§1)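 Cells were incubated for 48 h at 37°C before CellTiter-Glo One luminescence was read. The cells were NOMO1 or SEM (500 cells/well) or P12-Ichikawa (1000 cells/well) leukemia cells, adapted for at least four passages in each medium and seeded in 1536-well plates (5 μl). Dosing used library compounds in DMSO applied by pin over 11 threefold points, 47 μM to 0.79 nM. Viability is the per-plate percentage of DMSO wells, with cell-free wells as background.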

P12-Ichikawa [2] = assay: as above
Procedure, shortened: as §1

SEM cells [3] = assay: as above
Procedure, shortened: as §1

NOMO1 [4] = assay: AUC of viability dose-response curve (% viability x log10 dose units); higher = less sensitive
Procedure, shortened: (§2)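 Area under the curve was integrated by trapezoidal rule from a log-logistic fit of normalised viability, with curves exceeding full viability scaled and quality-control failures removed. The fit had four parameters over log10 doses. Viability came from CellTiter-Glo One luminescence, normalised per plate to DMSO and cell-free wells, after leukemia cells adapted to each medium (500 or 1000 cells/well, 1536-well plates) were exposed to library compounds in DMSO for 48 h at 37°C. The 11 threefold doses ran from 47 μM to 0.79 nM.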

P12-Ichikawa [5] = assay: as above
Procedure, shortened: as §2

SEM cells [6] = assay: as above
Procedure, shortened: as §2

COc1cc(Nc2ncc(F)c(Nc3ccc4c(n3)NC(=O)C(C)(C)O4)n2)cc(OC)c1OC
cell viability [%]
Settings	NOMO1 [1]	P12-Ichikawa [2]	SEM cells [3]
HPLM + 10% dialyzed FBS, 0.000781 µM	93.8	107	87.1
HPLM + 10% dialyzed FBS, 0.00234 µM	105	112	99
HPLM + 10% dialyzed FBS, 0.00702 µM	119	120	106
HPLM + 10% dialyzed FBS, 0.0211 µM	127	114	123
HPLM + 10% dialyzed FBS, 0.0632 µM	139	122	106
HPLM + 10% dialyzed FBS, 0.19 µM	138	118	103
HPLM + 10% dialyzed FBS, 0.569 µM	120	129	95.8
HPLM + 10% dialyzed FBS, 1.71 µM	106	101	57.7
HPLM + 10% dialyzed FBS, 5.12 µM	53.3	44.8	6.83
HPLM + 10% dialyzed FBS, 15.4 µM	11.4	4.38	4.48
HPLM + 10% dialyzed FBS, 46.1 µM	6.39	4.34	4.63
RPMI 5 mM glucose + 10% FBS, 0.000781 µM	104	114	57.5
RPMI 5 mM glucose + 10% FBS, 0.00234 µM	111	107	73
RPMI 5 mM glucose + 10% FBS, 0.00702 µM	118	126	70.6
RPMI 5 mM glucose + 10% FBS, 0.0211 µM	118	112	70.4
RPMI 5 mM glucose + 10% FBS, 0.0632 µM	125	119	68.4
RPMI 5 mM glucose + 10% FBS, 0.19 µM	126	126	70.6
RPMI 5 mM glucose + 10% FBS, 0.569 µM	128	113	55
RPMI 5 mM glucose + 10% FBS, 1.71 µM	106	114	34.9
RPMI 5 mM glucose + 10% FBS, 5.12 µM	73.9	62.3	3.27
RPMI 5 mM glucose + 10% FBS, 15.4 µM	13.4	5.34	3.07
RPMI 5 mM glucose + 10% FBS, 46.1 µM	7.45	5.36	3.1
RPMI 5 mM glucose + 10% dialyzed FBS, 0.000781 µM	109	110	95
RPMI 5 mM glucose + 10% dialyzed FBS, 0.00234 µM	99.7	122	111
RPMI 5 mM glucose + 10% dialyzed FBS, 0.00702 µM	107	113	101
RPMI 5 mM glucose + 10% dialyzed FBS, 0.0211 µM	106	122	95.2
RPMI 5 mM glucose + 10% dialyzed FBS, 0.0632 µM	105	121	89.8
RPMI 5 mM glucose + 10% dialyzed FBS, 0.19 µM	116	121	104
RPMI 5 mM glucose + 10% dialyzed FBS, 0.569 µM	128	137	91.2
RPMI 5 mM glucose + 10% dialyzed FBS, 1.71 µM	103	112	49.4
RPMI 5 mM glucose + 10% dialyzed FBS, 5.12 µM	82.7	62.4	9.48
RPMI 5 mM glucose + 10% dialyzed FBS, 15.4 µM	23.9	5.87	3.83
RPMI 5 mM glucose + 10% dialyzed FBS, 46.1 µM	6.81	5.61	4.35

AUC of viability dose-response curve
Settings	HPLM + 10% dialyzed FBS	RPMI 5 mM glucose + 10% FBS	RPMI 5 mM glucose + 10% dialyzed FBS
NOMO1 [4]	379	392	404
P12-Ichikawa [5]	373	386	384

O=C(NC[C@H]1CN(c2ccc(N3CCOCC3=O)cc2)C(=O)O1)c1ccc(Cl)s1
cell viability [%]
Settings	HPLM + 10% dialyzed FBS	RPMI 5 mM glucose + 10% FBS	RPMI 5 mM glucose + 10% dialyzed FBS
P12-Ichikawa [2], 0.000781 µM	104	–	103
P12-Ichikawa [2], 0.00234 µM	111	–	119
P12-Ichikawa [2], 0.00702 µM	112	–	115
P12-Ichikawa [2], 0.0211 µM	115	–	125
P12-Ichikawa [2], 0.0632 µM	113	–	126
P12-Ichikawa [2], 0.19 µM	119	–	123
P12-Ichikawa [2], 0.569 µM	122	–	134
P12-Ichikawa [2], 1.71 µM	114	–	132
P12-Ichikawa [2], 5.12 µM	16	–	51.1
P12-Ichikawa [2], 15.4 µM	13.4	–	37.8
P12-Ichikawa [2], 46.1 µM	12.4	–	19.3
SEM cells [3], 0.000781 µM	89.8	103	109
SEM cells [3], 0.00234 µM	107	113	105
SEM cells [3], 0.00702 µM	104	120	118
SEM cells [3], 0.0211 µM	107	114	98.9
SEM cells [3], 0.0632 µM	104	102	116
SEM cells [3], 0.19 µM	103	117	132
SEM cells [3], 0.569 µM	125	129	120
SEM cells [3], 1.71 µM	108	109	129
SEM cells [3], 5.12 µM	116	117	136
SEM cells [3], 15.4 µM	134	123	134
SEM cells [3], 46.1 µM	118	115	122

AUC of viability dose-response curve
Settings	NOMO1 [4]	P12-Ichikawa [5]	SEM cells [6]
HPLM + 10% dialyzed FBS	345	372	423
RPMI 5 mM glucose + 10% FBS	312	376	459
RPMI 5 mM glucose + 10% dialyzed FBS	345	395	444

CC(C)(C)c1cc(C=C(C#N)C#N)cc(Br)c1O
cell viability [%]
Settings	NOMO1 [1]	P12-Ichikawa [2]	SEM cells [3]
HPLM + 10% dialyzed FBS, 0.000781 µM	86	96.9	87
HPLM + 10% dialyzed FBS, 0.00234 µM	114	116	109
HPLM + 10% dialyzed FBS, 0.00702 µM	124	74.7	42.3
HPLM + 10% dialyzed FBS, 0.0211 µM	112	114	114
HPLM + 10% dialyzed FBS, 0.0632 µM	112	122	111
HPLM + 10% dialyzed FBS, 0.19 µM	122	122	109
HPLM + 10% dialyzed FBS, 0.569 µM	122	123	114
HPLM + 10% dialyzed FBS, 1.71 µM	113	120	110
HPLM + 10% dialyzed FBS, 5.12 µM	113	121	111
HPLM + 10% dialyzed FBS, 15.4 µM	103	116	108
HPLM + 10% dialyzed FBS, 46.1 µM	94.9	104	104
RPMI 5 mM glucose + 10% FBS, 0.000781 µM	89.9	101	65.4
RPMI 5 mM glucose + 10% FBS, 0.00234 µM	115	110	72.7
RPMI 5 mM glucose + 10% FBS, 0.00702 µM	116	67.7	11.9
RPMI 5 mM glucose + 10% FBS, 0.0211 µM	126	117	67.3
RPMI 5 mM glucose + 10% FBS, 0.0632 µM	103	115	90.6
RPMI 5 mM glucose + 10% FBS, 0.19 µM	106	123	81.4
RPMI 5 mM glucose + 10% FBS, 0.569 µM	121	124	83.8
RPMI 5 mM glucose + 10% FBS, 1.71 µM	132	113	77.4
RPMI 5 mM glucose + 10% FBS, 5.12 µM	107	123	71.5
RPMI 5 mM glucose + 10% FBS, 15.4 µM	109	121	77.7
RPMI 5 mM glucose + 10% FBS, 46.1 µM	100	100	77.5
RPMI 5 mM glucose + 10% dialyzed FBS, 0.000781 µM	84.5	106	87.3
RPMI 5 mM glucose + 10% dialyzed FBS, 0.00234 µM	101	114	98.8
RPMI 5 mM glucose + 10% dialyzed FBS, 0.00702 µM	105	79.7	35.7
RPMI 5 mM glucose + 10% dialyzed FBS, 0.0211 µM	103	116	111
RPMI 5 mM glucose + 10% dialyzed FBS, 0.0632 µM	105	126	108
RPMI 5 mM glucose + 10% dialyzed FBS, 0.19 µM	108	132	123
RPMI 5 mM glucose + 10% dialyzed FBS, 0.569 µM	125	117	119
RPMI 5 mM glucose + 10% dialyzed FBS, 1.71 µM	115	132	107
RPMI 5 mM glucose + 10% dialyzed FBS, 5.12 µM	116	130	105
RPMI 5 mM glucose + 10% dialyzed FBS, 15.4 µM	116	113	115
RPMI 5 mM glucose + 10% dialyzed FBS, 46.1 µM	103	110	90.7

AUC of viability dose-response curve
Settings	HPLM + 10% dialyzed FBS	RPMI 5 mM glucose + 10% FBS	RPMI 5 mM glucose + 10% dialyzed FBS
NOMO1 [4]	473	471	456
P12-Ichikawa [5]	453	452	452

COc1cc(C(=O)N2CCC(N3CCN(C)CC3)CC2)ccc1Nc1ncc2c(n1)N(C)c1ccccc1C(=O)N2C
AUC of viability dose-response curve
Settings	NOMO1 [4]	P12-Ichikawa [5]	SEM cells [6]
HPLM + 10% dialyzed FBS	419	428	376
RPMI 5 mM glucose + 10% FBS	435	435	374
RPMI 5 mM glucose + 10% dialyzed FBS	412	433	363

Cc1cc(C[S+](=O)([O-])c2ccccc2)cc(OCc2ccc(CN3CCC[C@@H]3CO)cc2)c1
AUC of viability dose-response curve
Settings	NOMO1 [4]	P12-Ichikawa [5]	SEM cells [6]
HPLM + 10% dialyzed FBS	298	305	291
RPMI 5 mM glucose + 10% FBS	321	315	268
RPMI 5 mM glucose + 10% dialyzed FBS	323	321	285
